# Measurements reported in ChEMBL document CHEMBL1201862, “PubChem BioAssay data set” (2004).
# The source made the active and inactive calls.
# Assays:
# [1] = Luminescence Cell-Based Dose Response HTS to Identify Inhibitors of 5'UTR Stem-Loop Driven Prion Protein mRNA Translation in H4 Neuroglioblastoma Cells. [Related pubchem assays: 1827 (Project Summary), 1813 (Primary HTS)]; type: functional
# [2] = blockade of melanocortin 4 receptor signaling – cell-based, plate reader, cherry pick, counter-screen for LGR2 antagonist project, dose response (AID 743444); type: functional;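 also: transfected HEK 293 cells stimulated with alpha-MSH peptide; potency of inhibitors of the alpha-MSH evoked signal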
# [3] = target: T1, Caspase-3 (Homo sapiens, UniProt P42574); type: functional;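 also: Dose-response selectivity test against caspase-3 for candidate inhibitors of sentrin-specific proteases (SENPs)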
# T1 sequence (P42574 whole entry): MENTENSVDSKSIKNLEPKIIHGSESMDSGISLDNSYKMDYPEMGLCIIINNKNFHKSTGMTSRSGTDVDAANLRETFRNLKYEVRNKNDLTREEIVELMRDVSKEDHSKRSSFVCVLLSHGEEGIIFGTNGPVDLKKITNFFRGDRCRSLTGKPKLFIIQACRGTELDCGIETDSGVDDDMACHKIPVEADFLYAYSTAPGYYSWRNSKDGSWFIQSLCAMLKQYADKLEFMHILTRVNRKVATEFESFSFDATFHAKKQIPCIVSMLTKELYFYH
# [4] = target: T2, Sentrin-specific protease 6 (Homo sapiens, UniProt Q9GZR1); type: functional;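 also: Luminescence-based dose-response confirmatory assay of SENP6 inhibition, following up an ultra-high-throughput screen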
# T2 sequence (Q9GZR1 whole entry): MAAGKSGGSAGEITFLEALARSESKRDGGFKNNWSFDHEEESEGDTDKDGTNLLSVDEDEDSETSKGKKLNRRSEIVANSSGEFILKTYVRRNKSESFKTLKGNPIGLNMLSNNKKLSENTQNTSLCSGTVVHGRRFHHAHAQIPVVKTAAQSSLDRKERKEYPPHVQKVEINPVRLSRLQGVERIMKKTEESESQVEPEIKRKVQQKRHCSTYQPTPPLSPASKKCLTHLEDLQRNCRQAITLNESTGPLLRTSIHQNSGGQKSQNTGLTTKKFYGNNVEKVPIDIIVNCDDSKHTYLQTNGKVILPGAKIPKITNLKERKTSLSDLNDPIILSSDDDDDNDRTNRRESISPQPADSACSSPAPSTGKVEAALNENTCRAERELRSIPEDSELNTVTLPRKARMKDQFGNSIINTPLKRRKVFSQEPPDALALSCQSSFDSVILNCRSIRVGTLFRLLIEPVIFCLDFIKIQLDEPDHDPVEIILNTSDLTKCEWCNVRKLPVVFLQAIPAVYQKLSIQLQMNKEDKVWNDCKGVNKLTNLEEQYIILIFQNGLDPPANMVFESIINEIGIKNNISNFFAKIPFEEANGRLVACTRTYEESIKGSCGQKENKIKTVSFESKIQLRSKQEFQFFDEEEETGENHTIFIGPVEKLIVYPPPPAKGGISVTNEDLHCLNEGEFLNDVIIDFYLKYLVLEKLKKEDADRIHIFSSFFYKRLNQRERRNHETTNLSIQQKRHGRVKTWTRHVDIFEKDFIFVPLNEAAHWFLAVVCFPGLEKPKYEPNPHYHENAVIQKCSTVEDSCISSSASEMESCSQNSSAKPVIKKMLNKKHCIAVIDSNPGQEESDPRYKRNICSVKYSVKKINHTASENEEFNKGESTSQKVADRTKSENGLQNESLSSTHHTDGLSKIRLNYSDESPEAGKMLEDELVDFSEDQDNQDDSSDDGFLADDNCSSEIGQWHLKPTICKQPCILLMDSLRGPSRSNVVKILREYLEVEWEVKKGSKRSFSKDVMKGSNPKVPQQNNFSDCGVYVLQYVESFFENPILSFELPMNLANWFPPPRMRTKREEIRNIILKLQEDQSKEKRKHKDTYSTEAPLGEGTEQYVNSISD
# [5] = target: T3, Sentrin-specific protease 8 (Homo sapiens, UniProt Q96LD8); type: functional;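 also: luminescence read-out of SENP8 inhibition, dose-response confirmation following an ultra-high-throughput screen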
# T3 sequence (Q96LD8 whole entry): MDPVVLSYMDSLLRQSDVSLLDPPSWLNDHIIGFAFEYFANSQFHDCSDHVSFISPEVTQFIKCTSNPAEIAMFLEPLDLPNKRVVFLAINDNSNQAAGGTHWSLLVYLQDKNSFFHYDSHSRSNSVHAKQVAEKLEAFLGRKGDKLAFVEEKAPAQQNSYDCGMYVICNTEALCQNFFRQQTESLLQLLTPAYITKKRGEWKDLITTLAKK
# [6] = alpha-synuclein stem-loop luciferase translation blockers – H4 neuroglioma cells, luminescence, confirmation (AID 1988); type: functional, cell-based
# [7] = viability loss in HEK293 cells – cell-based, plate reader, cherry-picked samples, cytotoxicity control, dose response (AID 743446); type: functional
# [8] = test system: HEK293; assay: EBV LMP1 TES2 canonical NF-kB signalling blockers – cell-based, HEK293, luciferase, cherry-pick, dose response (AID 588343); type: functional; conditions: Homo sapiens
# [9] = toxicity toward HepG2 liver cells – cell-based, plate reader, cherry-pick, antagonist series, cytotoxicity control, dose response (AID 743416); type: functional
# [10] = target: T4, Sentrin-specific protease 7 (Homo sapiens, UniProt Q9BQF6); type: functional;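 also: Luminescence-based dose-response confirmation of ultra-high-throughput screening hits, measuring inhibition of SENP7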
# T4 sequence (Q9BQF6 whole entry): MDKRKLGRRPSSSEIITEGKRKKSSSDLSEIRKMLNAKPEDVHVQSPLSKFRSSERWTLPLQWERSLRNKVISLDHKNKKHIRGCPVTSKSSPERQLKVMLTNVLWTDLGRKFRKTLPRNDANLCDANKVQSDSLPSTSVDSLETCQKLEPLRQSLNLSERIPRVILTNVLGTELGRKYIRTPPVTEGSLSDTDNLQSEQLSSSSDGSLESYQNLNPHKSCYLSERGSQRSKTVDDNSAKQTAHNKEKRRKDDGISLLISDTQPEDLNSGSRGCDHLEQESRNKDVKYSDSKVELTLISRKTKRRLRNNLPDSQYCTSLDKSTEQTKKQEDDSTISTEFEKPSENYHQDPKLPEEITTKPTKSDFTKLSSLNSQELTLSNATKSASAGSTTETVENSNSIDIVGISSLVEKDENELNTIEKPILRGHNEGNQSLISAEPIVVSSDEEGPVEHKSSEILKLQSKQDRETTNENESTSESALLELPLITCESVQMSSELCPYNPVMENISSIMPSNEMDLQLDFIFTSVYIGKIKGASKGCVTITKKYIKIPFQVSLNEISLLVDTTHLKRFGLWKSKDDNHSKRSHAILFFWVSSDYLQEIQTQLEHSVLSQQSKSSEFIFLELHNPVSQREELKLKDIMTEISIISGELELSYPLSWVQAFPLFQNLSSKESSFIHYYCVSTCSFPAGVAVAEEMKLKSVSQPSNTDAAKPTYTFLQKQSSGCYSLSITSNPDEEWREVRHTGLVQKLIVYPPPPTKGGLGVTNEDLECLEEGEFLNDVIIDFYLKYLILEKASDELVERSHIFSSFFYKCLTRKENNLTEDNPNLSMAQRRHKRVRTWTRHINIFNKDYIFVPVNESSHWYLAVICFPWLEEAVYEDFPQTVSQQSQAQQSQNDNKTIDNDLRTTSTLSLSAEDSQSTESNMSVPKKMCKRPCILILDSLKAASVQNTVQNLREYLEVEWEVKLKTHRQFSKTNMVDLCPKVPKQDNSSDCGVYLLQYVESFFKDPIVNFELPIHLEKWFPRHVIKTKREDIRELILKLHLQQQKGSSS
# [11] = A549 cell cytotoxicity, dose response, cytotoxicity control, plate reader, cherry-pick, antagonist series (AID 743412); type: functional, cell-based
# [12] = blockers of bursicon-stimulated LGR2 cAMP reporter – cell-based, HEK293, CRE-luciferase reporter, cherry pick, set 2, dose response (AID 743343); type: functional;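 also: transfected cells were stimulated with diluted bursicon conditioned medium after compound addition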
# [13] = target: Protein Wnt-3a (Mus musculus, UniProt P27467); assay: antagonism of Wnt3a pathway luciferase reporter – Wnt-LIGHT cells, luminescence, selectivity assay for Gli-SUFU antagonist project, dose response (AID 651570); type: functional; conditions: read-out: IC50_Mean;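 also: Wnt-LIGHT reporter cells stimulated with conditioned medium from Wnt3a-producing cells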
# [14] = target: T5, Probable nicotinate-nucleotide adenylyltransferase (Staphylococcus aureus (strain N315), UniProt P65502); type: functional, Staphylococcus aureus subsp. aureus N315;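 as to IC50 Mean: confirmatory dose-response retesting of NadD inhibitor hits first found in an ultra-high-throughput screen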
# [15] = target: T5, Probable nicotinate-nucleotide adenylyltransferase; type: functional, Staphylococcus aureus subsp. aureus N315; conditions: read-out: IC50_Mean
# [16] = non-specific 3'UTR reporter inhibition in Clone20-Shn3RL – cell-based, Renilla luciferase, cherry-picked, counter-screen for Shn3 inhibitor project, dose response (AID 624133); type: functional
# [17] = loss of viability in HepG2 cells – cell-based, CellTiter-Glo, cherry-picked, cytotoxicity control for Shn3 inhibitor project, dose response (AID 624134); type: functional
# [18] = reduction of Shn3 3'UTR-driven luciferase in osteoblasts – cell-based, Clone20 osteoblasts, firefly luciferase, cherry-picked, dose response (AID 624132); type: functional;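 also: firefly luciferase luminescence from reporter carrying the Shn3 3'UTR in osteoblasts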
# [19] = test system: INS1; assay: INS-1E survival protection against cytokine death – cell-based, luminescence, retest, dose response (AID 449756); type: functional; conditions: Rattus norvegicus;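 also: cell death triggered by IL-1 beta plus TNF-alpha plus IFN-gamma mixture; protective hits raise ATP signal compared with cytokine alone wells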
# [20] = target: Photoreceptor-specific nuclear receptor (Homo sapiens, UniProt Q9Y5X4); type: functional, cell-based;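 also: CHO-S cells with Gal4-NCOR and VP16-NR2E3 two-hybrid luciferase reporter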
# [21] = target: Adenosylmethionine-8-amino-7-oxononanoate aminotransferase (Mycobacterium tuberculosis, UniProt P9WQ81); assay: Mycobacterium tuberculosis BioA enzyme inhibitor Measured in Biochemical System Using Plate Reader - 2163-02_Inhibitor_Dose_CherryPick_Activity.; type: functional, Mycobacterium tuberculosis UT205
# [22] = Fluorescence-based cell-based high throughput dose response assay for inhibitors of the interaction of nucleotide-binding oligomerization domain containing 2 (NOD2) and the receptor-interacting serine-threonine kinase 2 (RIPK2).; type: functional; conditions: Homo sapiens
# [23] = test system: BJ; assay: cells; type: functional, cell-based; conditions: Homo sapiens
# [24] = DRD fibroblast viability loss – cell-based, non-viral oncogenic, luminescence, dose response (AID 1934); type: functional; conditions: Homo sapiens
# [25] = test system: BJ; assay: BJ-TERT fibroblast viability loss – cell-based, RAS-independent, luminescence, dose response (AID 1933); type: functional; conditions: Homo sapiens
# [26] = test system: BJ; assay: BJ-TERT-LT-ST fibroblast viability loss – cell-based, RAS-independent, luminescence, dose response (AID 1935); type: functional; conditions: Homo sapiens;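 also: BJ fibroblasts immortalized with TERT plus LT and ST oncogenes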
# [27] = target: T6, Microphthalmia-associated transcription factor (Homo sapiens, UniProt O75030); assay: reducers of TRPM1 reporter luminescence, concentration series – cell-based, SK-MEL-5, cherry-picked, set 3, MITF inhibitor project, dose response (AID 493073); type: functional;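 also: SK-MEL-5 melanoma cells with luciferase driven by the MITF target TRPM1 promoter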
# T6 sequence (O75030 whole entry): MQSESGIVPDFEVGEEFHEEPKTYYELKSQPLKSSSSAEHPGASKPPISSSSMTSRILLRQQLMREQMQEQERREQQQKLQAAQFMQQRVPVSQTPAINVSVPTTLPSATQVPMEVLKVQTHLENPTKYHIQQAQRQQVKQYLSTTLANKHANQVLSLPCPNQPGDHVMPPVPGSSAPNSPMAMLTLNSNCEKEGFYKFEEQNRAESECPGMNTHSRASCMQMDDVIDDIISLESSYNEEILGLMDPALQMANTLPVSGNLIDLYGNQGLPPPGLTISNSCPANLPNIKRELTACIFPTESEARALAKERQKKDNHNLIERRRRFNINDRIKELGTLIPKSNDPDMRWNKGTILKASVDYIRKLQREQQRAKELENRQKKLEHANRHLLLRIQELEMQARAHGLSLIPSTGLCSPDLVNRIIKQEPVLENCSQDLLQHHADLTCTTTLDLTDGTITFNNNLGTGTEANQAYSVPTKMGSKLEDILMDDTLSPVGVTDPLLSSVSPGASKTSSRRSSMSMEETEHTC
# [28] = target: T7, Heat shock factor protein 1 (Mus musculus, UniProt P38532); assay: enhancement of HSF1-driven luciferase signal – cell-based, NIH3T3, luminescence, dose retest, confirmation (AID 435004); type: functional;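 also: stress induced by proteasome inhibitor MG132 added 30 min after compound; luciferase reporter driven by HSF1 response element in NIH3T3 cells; actives raise luminescence as potentiators of the MG132 stress response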
# T7 sequence (P38532 whole entry): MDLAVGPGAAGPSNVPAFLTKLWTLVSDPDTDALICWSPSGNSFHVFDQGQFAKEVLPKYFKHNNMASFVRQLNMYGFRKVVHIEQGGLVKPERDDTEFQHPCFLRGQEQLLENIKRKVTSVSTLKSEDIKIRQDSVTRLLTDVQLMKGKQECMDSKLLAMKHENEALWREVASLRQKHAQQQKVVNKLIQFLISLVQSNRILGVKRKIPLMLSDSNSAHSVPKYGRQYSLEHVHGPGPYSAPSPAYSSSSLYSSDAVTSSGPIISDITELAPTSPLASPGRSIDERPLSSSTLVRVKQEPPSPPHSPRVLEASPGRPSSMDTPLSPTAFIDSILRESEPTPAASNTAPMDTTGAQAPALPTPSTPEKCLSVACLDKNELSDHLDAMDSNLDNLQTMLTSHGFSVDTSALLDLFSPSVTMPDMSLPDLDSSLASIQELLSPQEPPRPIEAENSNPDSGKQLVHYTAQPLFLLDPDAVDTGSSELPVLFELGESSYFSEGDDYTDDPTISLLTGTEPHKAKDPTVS
# [29] = target: Heat shock protein HSP 90-alpha (Homo sapiens, UniProt P07900); type: functional, organism-based
# T5 sequence (P65502 whole entry): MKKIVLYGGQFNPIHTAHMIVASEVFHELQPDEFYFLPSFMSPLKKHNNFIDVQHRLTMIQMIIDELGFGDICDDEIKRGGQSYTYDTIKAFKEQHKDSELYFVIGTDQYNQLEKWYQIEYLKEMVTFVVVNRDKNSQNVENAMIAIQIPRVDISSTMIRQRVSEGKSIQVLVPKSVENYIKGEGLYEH
# Adenosylmethionine-8-amino-7-oxononanoate aminotransferase, sequence (P9WQ81 whole entry, the tested form may be a part): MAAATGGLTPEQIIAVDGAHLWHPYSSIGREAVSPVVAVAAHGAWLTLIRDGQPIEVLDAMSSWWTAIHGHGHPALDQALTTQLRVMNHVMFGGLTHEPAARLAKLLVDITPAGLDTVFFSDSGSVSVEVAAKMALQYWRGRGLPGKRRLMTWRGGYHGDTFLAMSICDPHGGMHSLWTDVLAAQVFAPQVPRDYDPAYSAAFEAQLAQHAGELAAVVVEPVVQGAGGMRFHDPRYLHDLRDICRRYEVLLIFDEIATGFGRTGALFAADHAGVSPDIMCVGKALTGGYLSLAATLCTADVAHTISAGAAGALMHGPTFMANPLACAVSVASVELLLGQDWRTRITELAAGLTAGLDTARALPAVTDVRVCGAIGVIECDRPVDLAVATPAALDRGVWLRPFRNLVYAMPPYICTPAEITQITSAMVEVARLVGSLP
# Protein Wnt-3a, sequence (P27467 whole entry): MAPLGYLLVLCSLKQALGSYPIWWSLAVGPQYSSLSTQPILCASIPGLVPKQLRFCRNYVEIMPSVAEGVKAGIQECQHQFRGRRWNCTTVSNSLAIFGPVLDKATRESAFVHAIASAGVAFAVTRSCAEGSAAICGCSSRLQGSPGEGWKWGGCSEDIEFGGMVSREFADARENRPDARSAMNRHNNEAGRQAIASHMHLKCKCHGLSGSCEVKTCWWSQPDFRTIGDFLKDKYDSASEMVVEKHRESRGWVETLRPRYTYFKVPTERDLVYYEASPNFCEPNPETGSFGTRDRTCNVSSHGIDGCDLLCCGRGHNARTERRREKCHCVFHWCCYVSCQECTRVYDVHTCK
# Photoreceptor-specific nuclear receptor, sequence (Q9Y5X4 whole entry, the tested form may be a part): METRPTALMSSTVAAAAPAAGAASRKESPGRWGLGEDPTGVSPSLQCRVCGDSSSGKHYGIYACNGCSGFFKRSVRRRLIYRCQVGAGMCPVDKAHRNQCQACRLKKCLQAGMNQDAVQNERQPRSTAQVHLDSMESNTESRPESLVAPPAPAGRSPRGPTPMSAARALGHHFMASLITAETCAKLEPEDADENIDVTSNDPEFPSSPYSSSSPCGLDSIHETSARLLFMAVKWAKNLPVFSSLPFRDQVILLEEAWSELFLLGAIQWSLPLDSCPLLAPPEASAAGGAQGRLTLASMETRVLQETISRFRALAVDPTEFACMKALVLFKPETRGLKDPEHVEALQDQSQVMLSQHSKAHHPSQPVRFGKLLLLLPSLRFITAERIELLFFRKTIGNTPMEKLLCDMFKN
smiles,measurement,setting,value
Cc1ccc(/C=C/c2nc(O)c3ccccc3n2)cc1,EC50,[1],14.8 µM (active)
same,AC50,[2],2.45 µM (active)
same,IC50,[3],0.999 µM (active)
same,IC50,[4],0.961 µM (active)
same,IC50,[5],1.5 µM (active)
same,EC50,[6],4.45 µM (inconclusive)
same,AC50,[7],> 52 µM (inactive)
same,AC50,[8],1.88 µM (active)
same,AC50,[9],> 52 µM (inactive)
same,IC50,[10],0.788 µM (active)
same,AC50,[11],> 52 µM (inactive)
same,AC50,[12],2.73 µM (active)
CC1CCC(NC(=O)c2cccc(S(=O)(=O)N3CCN(c4ccccc4)CC3)c2)CC1 (stereo not drawn),IC50,[13],28.3 µM (inactive)
CCC(C)n1c(=O)c(C(=O)Nc2ccccc2S(N)(=O)=O)c(O)c2ccccc21 (stereo not drawn),IC50,[14],5.92 µM (active)
same,IC50,[15],41.1 µM (active)
CC(CC(=O)N1CCN(c2cccc(Cl)c2)CC1)S(=O)(=O)c1ccc2c(c1)NC(=O)CO2 (stereo not drawn),AC50,[16],5.37 µM (active)
same,AC50,[17],34.7 µM (active)
same,AC50,[18],3.99 µM (active)
same,IC50,[13],15.1 µM (active)
same,AC50,[19],5.65 µM (active)
COc1ccc(C)cc1NC(=O)c1nnn(Cc2cccc(C(F)(F)F)c2)c1N,IC50,[20],39.8 µM (inactive)
Cc1ccc(-c2nn(CCC(=O)Nc3cccnc3)c(=O)c3ccccc23)cc1,AC50,[21],0.148 µM (active)
CC(CNC(=O)CCCn1ncn2c(cc3occc32)c1=O)c1ccccc1 (stereo not drawn),AC50,[21],0.785 µM (active)
COc1cc2c(cc1/C=C/[N+](=O)[O-])OCO2,IC50,[22],3.19 µM (active)
same,EC50,[23],11.5 µM (inconclusive)
same,EC50,[24],6.07 µM (active)
same,EC50,[25],8.89 µM (inconclusive)
same,EC50,[26],8.52 µM (inconclusive)
same,AC50,[27],8.98 µM (active)
same,EC50,[28],8.55 µM (active)
same,AC50,[29],4.25 µM (active)
O=C(CSc1nnc(SCc2ccccc2)s1)N/N=C/C=C/c1ccco1,IC50,[14],12 µM (active)
same,IC50,[15],27.6 µM (active)
